Target: T1, NTCP (Homo sapiens, UniProt Q14973)
T1 sequence (Q14973 1-349): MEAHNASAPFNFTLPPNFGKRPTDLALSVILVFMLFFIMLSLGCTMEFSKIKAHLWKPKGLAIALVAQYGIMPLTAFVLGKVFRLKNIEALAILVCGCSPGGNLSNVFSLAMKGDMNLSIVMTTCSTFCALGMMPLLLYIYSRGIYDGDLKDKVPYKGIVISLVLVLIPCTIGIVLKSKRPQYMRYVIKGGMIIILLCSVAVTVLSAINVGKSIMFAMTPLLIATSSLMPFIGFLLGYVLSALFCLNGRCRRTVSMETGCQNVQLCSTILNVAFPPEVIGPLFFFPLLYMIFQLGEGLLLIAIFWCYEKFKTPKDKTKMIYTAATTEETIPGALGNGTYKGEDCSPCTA
Experiment: [3H]-TCA uptake assay (NTCP inhibition)
Assay type: cell-based
Method: [^3H]-TCA uptake assay. PTH and HepG2-NTCP cells were cultured in PMM for 24 hours to induce NTCP expression. After treated by DMSO or test compounds for 2 hours, the cells were then incubated with 1 μM [^3H]-taurocholate acid dissolved in Na^+ Ringer's buffer (the concentration of Na was 145 mM) for 15 minutes at 37° C. Subsequently, the cells were washed once in phosphate-buffered saline (PBS) and lysed in 50 μL 1% TritonX-100 in H2O for 5 minutes at room temperature. The lysate were totally transferred into a liquid scintillation 96 well plate and mixed with 200 μL liquid scintillation cocktail (Ultima Gold XR, PerkinElmer). Liquid scintillation counting was performed on a PerkinElmer 1450 LSC liquid scintillation counter.

[1] = IC50, given as a range, marked * (asterisk not explained)
[2] = given as a range, assay not given
[3] = given as a range, marked * (asterisk not explained)

Question: For `CCC1NC(=O)C(C2OC(SCc3ccc(-n4cccn4)cc3)CC2C)N(C)C(=O)C(C(C)C)N(C)C(=O)C(CC(C)C)N(C)C(=O)C(CC(C)C)N(C)C(=O)C(C)NC(=O)C(C)NC(=O)C(CC(C)C)N(C)C(=O)C(C(C)C)NC(=O)C(CC(C)C)N(C)C(=O)CN(C)C1=O` (centres unmarked) [Compound 77A-s], which IC50 [1] is on record?
Answer: 1000 to 100000 nM

Question: How did the IC50 [1] turn out when `CCC1NC(=O)C(C2OC(Oc3cccc(NC)c3)CC2C)N(C)C(=O)C(C(C)C)N(C)C(=O)C(CC(C)C)N(C)C(=O)C(CC(C)C)N(C)C(=O)C(C)NC(=O)C(C)NC(=O)C(CC(C)C)N(C)C(=O)C(C(C)C)NC(=O)C(CC(C)C)N(C)C(=O)CN(C)C1=O` (centres unmarked) [Compound 47A-o] was run?
Answer: 1000 to 100000 nM

Question: With `CCC1NC(=O)C(C2OC(OCc3ccccc3Cl)CC2C)N(C)C(=O)C(C(C)C)N(C)C(=O)C(CC(C)C)N(C)C(=O)C(CC(C)C)N(C)C(=O)C(C)NC(=O)C(C)NC(=O)C(CC(C)C)N(C)C(=O)C(C(C)C)NC(=O)C(CC(C)C)N(C)C(=O)CN(C)C1=O` [Compound 84A, [2-((2R,3R)-5-(2-chlorobenzyloxy)-3-methyltetrahydrofuran-2-yl)-2-(methylamino)acetic acid]^1-cyclosporin A] as the compound, how does the IC50 [2] read?
Answer: 1 to 1000 nM

Question: `CCC1NC(=O)C(C2OC(Sc3cccc(OCC4CCOCC4)c3)CC2C)N(C)C(=O)C(C(C)C)N(C)C(=O)C(CC(C)C)N(C)C(=O)C(CC(C)C)N(C)C(=O)C(C)NC(=O)C(C)NC(=O)C(CC(C)C)N(C)C(=O)C(C(C)C)NC(=O)C(CC(C)C)N(C)C(=O)CN(C)C1=O` [Compound 33A, [2-((2R,3R)-3-methyl-5-(3-((tetrahydro-2H-pyran-4-yl)methoxy)phenylthio)tetrahydrofuran-2-yl)-2-(methylamino)acetic acid]^1-cyclosporin A] was tested. Which IC50 [2] did it give?
Answer: 1 to 1000 nM

Question: `CCC1NC(=O)C(C2OC(Oc3cccc(OCc4ccccc4)c3)CC2C)N(C)C(=O)C(C(C)C)N(C)C(=O)C(CC(C)C)N(C)C(=O)C(CC(C)C)N(C)C(=O)C(C)NC(=O)C(C)NC(=O)C(CC(C)C)N(C)C(=O)C(C(C)C)NC(=O)C(CC(C)C)N(C)C(=O)CN(C)C1=O` (single isomer, unassigned) [Compound 12B-o] was tested. Which IC50 [2] did it give?
Answer: 1 to 1000 nM

Question: With `CCC1NC(=O)C(C2OC(Sc3ccc4ccccc4c3)CC2C)N(C)C(=O)C(C(C)C)N(C)C(=O)C(CC(C)C)N(C)C(=O)C(CC(C)C)N(C)C(=O)C(C)NC(=O)C(C)NC(=O)C(CC(C)C)N(C)C(=O)C(C(C)C)NC(=O)C(CC(C)C)N(C)C(=O)CN(C)C1=O` (centres unmarked) [Compound 62] as the compound, how does the IC50 [1] read?
Answer: 1000 to 100000 nM

Question: How did the IC50 [1] turn out when `CCC1NC(=O)C(C2OC(SC(C)c3ccc(Cl)c(Cl)c3)CC2C)N(C)C(=O)C(C(C)C)N(C)C(=O)C(CC(C)C)N(C)C(=O)C(CC(C)C)N(C)C(=O)C(C)NC(=O)C(C)NC(=O)C(CC(C)C)N(C)C(=O)C(C(C)C)NC(=O)C(CC(C)C)N(C)C(=O)CN(C)C1=O` (centres unmarked) [Compound 96A-s] was run?
Answer: 1000 to 100000 nM

Question: For `CCC1NC(=O)C(C2OC(Sc3cccc(OCC4CCN(C)CC4)c3)CC2C)N(C)C(=O)C(C(C)C)N(C)C(=O)C(CC(C)C)N(C)C(=O)C(CC(C)C)N(C)C(=O)C(C)NC(=O)C(C)NC(=O)C(CC(C)C)N(C)C(=O)C(C(C)C)NC(=O)C(CC(C)C)N(C)C(=O)CN(C)C1=O` (centres unmarked) [Compound 72], which IC50 [1] is on record?
Answer: 1000 to 100000 nM

Question: `CCC1NC(=O)C(C2OC(Oc3cccc(OCc4ccncc4)c3)CC2C)N(C)C(=O)C(C(C)C)N(C)C(=O)C(CC(C)C)N(C)C(=O)C(CC(C)C)N(C)C(=O)C(C)NC(=O)C(C)NC(=O)C(CC(C)C)N(C)C(=O)C(C(C)C)NC(=O)C(CC(C)C)N(C)C(=O)CN(C)C1=O` (centres unmarked) [Compound 54A-o] was tested. Which IC50 [1] did it give?
Answer: 1000 to 100000 nM

Question: `CCC1NC(=O)C(C2OC(Oc3ccc(NC(C)=O)cc3)CC2C)N(C)C(=O)C(C(C)C)N(C)C(=O)C(CC(C)C)N(C)C(=O)C(CC(C)C)N(C)C(=O)C(C)NC(=O)C(C)NC(=O)C(CC(C)C)N(C)C(=O)C(C(C)C)NC(=O)C(CC(C)C)N(C)C(=O)CN(C)C1=O` (centres unmarked) [Compound 4A-o] was tested. Which IC50 [1] did it give?
Answer: 1000 to 100000 nM

Question: Which IC50 [2] does the source give for `CCC1NC(=O)C(C2OC(OC(C)c3ccc(Cl)c(Cl)c3)CC2C)N(C)C(=O)C(C(C)C)N(C)C(=O)C(CC(C)C)N(C)C(=O)C(CC(C)C)N(C)C(=O)C(C)NC(=O)C(C)NC(=O)C(CC(C)C)N(C)C(=O)C(C(C)C)NC(=O)C(CC(C)C)N(C)C(=O)CN(C)C1=O` (single isomer, unassigned) [Compound 97A] here?
Answer: 1 to 1000 nM

Question: With `CCC1NC(=O)C(C2OC(OCc3cccc(S(=O)(=O)OCC(C)C)c3)CC2C)N(C)C(=O)C(C(C)C)N(C)C(=O)C(CC(C)C)N(C)C(=O)C(CC(C)C)N(C)C(=O)C(C)NC(=O)C(C)NC(=O)C(CC(C)C)N(C)C(=O)C(C(C)C)NC(=O)C(CC(C)C)N(C)C(=O)CN(C)C1=O` [Compound 75A, [2-((2R,3R)-5-(3-(isobutoxysulfonyl)benzyloxy)-3-methyltetrahydrofuran-2-yl)-2-(methylamino)acetic acid]^1-cyclosporin A] as the compound, how does the IC50 [2] read?
Answer: 1 to 1000 nM

Question: Which IC50 [2] does the source give for `CCC1NC(=O)C(C2OC(OCc3ccc(Cl)c(Cl)c3)CC2C)N(C)C(=O)C(C(C)C)N(C)C(=O)C(CC(C)C)N(C)C(=O)C(CC(C)C)N(C)C(=O)C(C)NC(=O)C(C)NC(=O)C(CC(C)C)N(C)C(=O)C(C(C)C)NC(=O)C(CC(C)C)N(C)C(=O)CN(C)C1=O` [Compound 94B, [2-((2R,3R)-5-(3,4-dichlorobenzyloxy)-3-methyltetrahydrofuran-2-yl)-2-(methylamino)acetic acid]^1-cyclosporin A] here?
Answer: 1 to 1000 nM

Question: With `CCC1NC(=O)C(C2OC(Oc3cccc(OCC4CC4)c3)CC2C)N(C)C(=O)C(C(C)C)N(C)C(=O)C(CC(C)C)N(C)C(=O)C(CC(C)C)N(C)C(=O)C(C)NC(=O)C(C)NC(=O)C(CC(C)C)N(C)C(=O)C(C(C)C)NC(=O)C(CC(C)C)N(C)C(=O)CN(C)C1=O` (centres unmarked) [Compound 32A-o] as the compound, how does the IC50 [1] read?
Answer: 1000 to 100000 nM

Question: How did the IC50 [3] turn out when `CCC1NC(=O)C(C2OC(Oc3cccc(OCc4ccc(F)cc4C)c3)CC2C)N(C)C(=O)C(C(C)C)N(C)C(=O)C(CC(C)C)N(C)C(=O)C(CC(C)C)N(C)C(=O)C(C)NC(=O)C(C)NC(=O)C(CC(C)C)N(C)C(=O)C(C(C)C)NC(=O)C(CC(C)C)N(C)C(=O)CN(C)C1=O` (centres unmarked) [Compound 24A-o] was run?
Answer: 1000 to 100000 nM

Question: Which IC50 [1] does the source give for `CCC1NC(=O)C(C2OC(Sc3cccc(N(C)Cc4ccccc4)c3)CC2C)N(C)C(=O)C(C(C)C)N(C)C(=O)C(CC(C)C)N(C)C(=O)C(CC(C)C)N(C)C(=O)C(C)NC(=O)C(C)NC(=O)C(CC(C)C)N(C)C(=O)C(C(C)C)NC(=O)C(CC(C)C)N(C)C(=O)CN(C)C1=O` (centres unmarked) [Compound 68] here?
Answer: 1000 to 100000 nM

Question: How did the IC50 [2] turn out when `CCC1NC(=O)C(C2OC(Sc3cccc(OCc4ccc(F)c(Cl)c4)c3)CC2C)N(C)C(=O)C(C(C)C)N(C)C(=O)C(CC(C)C)N(C)C(=O)C(CC(C)C)N(C)C(=O)C(C)NC(=O)C(C)NC(=O)C(CC(C)C)N(C)C(=O)C(C(C)C)NC(=O)C(CC(C)C)N(C)C(=O)CN(C)C1=O` [Compound 22A, [2-((2R,3R)-5-(3-(3-chloro-4-fluorobenzyloxy)phenylthio)-3-methyltetrahydrofuran-2-yl)-2-(methylamino)acetic acid]^1-cyclosporin A] was run?
Answer: 1 to 1000 nM

Question: How did the IC50 [2] turn out when `CCC1NC(=O)C(C2OC(Sc3cccc(OCc4ccccc4F)c3)CC2C)N(C)C(=O)C(C(C)C)N(C)C(=O)C(CC(C)C)N(C)C(=O)C(CC(C)C)N(C)C(=O)C(C)NC(=O)C(C)NC(=O)C(CC(C)C)N(C)C(=O)C(C(C)C)NC(=O)C(CC(C)C)N(C)C(=O)CN(C)C1=O` [Compound 19A, [2-((2R,3R)-5-(3-(2-fluorobenzyloxy)phenylthio)-3-methyltetrahydrofuran-2-yl)-2-(methylamino)acetic acid]^1-cyclosporin A] was run?
Answer: 1 to 1000 nM

Question: With `CCC1NC(=O)C(C2OC(Sc3ccc(OC)c(OCc4ccccc4)c3)CC2C)N(C)C(=O)C(C(C)C)N(C)C(=O)C(CC(C)C)N(C)C(=O)C(CC(C)C)N(C)C(=O)C(C)NC(=O)C(C)NC(=O)C(CC(C)C)N(C)C(=O)C(C(C)C)NC(=O)C(CC(C)C)N(C)C(=O)CN(C)C1=O` (centres unmarked) [Compound 64] as the compound, how does the IC50 [3] read?
Answer: 1000 to 100000 nM

Question: How did the IC50 [2] turn out when `CCC1NC(=O)C(C2OC(Sc3cccc(OCC4CC4)c3)CC2C)N(C)C(=O)C(C(C)C)N(C)C(=O)C(CC(C)C)N(C)C(=O)C(CC(C)C)N(C)C(=O)C(C)NC(=O)C(C)NC(=O)C(CC(C)C)N(C)C(=O)C(C(C)C)NC(=O)C(CC(C)C)N(C)C(=O)CN(C)C1=O` [Compound 32A, [2-((2R,3R)-5-(3-(cyclopropylmethoxy)phenylthio)-3-methyltetrahydrofuran-2-yl)-2-(methylamino)acetic acid]^1-cyclosporin A] was run?
Answer: 1 to 1000 nM

Question: `CCC1NC(=O)C(C2OC(Oc3c(OC)cccc3OC)CC2C)N(C)C(=O)C(C(C)C)N(C)C(=O)C(CC(C)C)N(C)C(=O)C(CC(C)C)N(C)C(=O)C(C)NC(=O)C(C)NC(=O)C(CC(C)C)N(C)C(=O)C(C(C)C)NC(=O)C(CC(C)C)N(C)C(=O)CN(C)C1=O` (centres unmarked) [Compound 36A-o] was tested. Which IC50 [1] did it give?
Answer: 1000 to 100000 nM

Question: How did the IC50 [1] turn out when `CCC1NC(=O)C(C2OC(SCc3ccc(Cl)c(Cl)c3)CC2C)N(C)C(=O)C(C(C)C)N(C)C(=O)C(CC(C)C)N(C)C(=O)C(CC(C)C)N(C)C(=O)C(C)NC(=O)C(C)NC(=O)C(CC(C)C)N(C)C(=O)C(C(C)C)NC(=O)C(CC(C)C)N(C)C(=O)CN(C)C1=O` (centres unmarked) [Compound 94A-s] was run?
Answer: 1000 to 100000 nM

Question: `CCOc1cccc(SC2CC(C)C(C3C(=O)NC(CC)C(=O)N(C)CC(=O)N(C)C(CC(C)C)C(=O)NC(C(C)C)C(=O)N(C)C(CC(C)C)C(=O)NC(C)C(=O)NC(C)C(=O)N(C)C(CC(C)C)C(=O)N(C)C(CC(C)C)C(=O)N(C)C(C(C)C)C(=O)N3C)O2)c1` [Compound 29A, [2-((2R,3R)-5-(3-ethoxyphenylthio)-3-methyltetrahydrofuran-2-yl)-2-(methylamino)acetic acid]^1-cyclosporin A] was tested. Which IC50 [2] did it give?
Answer: 1 to 1000 nM

— US10961231B2, “NTCP inhibitors” (National Institute of Biological Sciences, Beijing, priority 2018, dated 2021)
